Results taken from patent US9006221B2, “Method of modulating ship activity” (H. Lee Moffitt Cancer Center and Reserach Institute, Inc., priority 2008, dated 2015).

How the values were obtained:
[1] = system: priming of allogeneic T cell responses; assay: MLR with splenocytes from inhibitor-treated mice as stimulators; type: in vivo, mouse
Excerpt: FACS quantitation of Mac1^+Gr1^+ MIR cells in spleen (A) and lymph node (B) of C57BL/6 mice treated with the SHIP1 inhibitor (Compound), vehicle (Vehicle) or unmanipulated controls (Normal) as indicated. (C) Mixed-Leukocyte-Reactions (MLR) where splenocytes from SHIP1 inhibitor-treated C57BL6 (H2b) mice were used as stimulators for BALB/C (H2d) responders. In parallel splenocytes from either unmanipulated (Normal) or Vehicle treated C57BL6 mice were used as positive controls for the MLR. […] (D) Human PBMC were pre-treated for 24 hr with 3α-aminocholestane (Compound) or vehicle, irradiated and then used as stimulators for untreated PBMC from a different donor in a one-way MLR. [BALB/C=responder splenocytes not mixed with BL6 stimulators; Stim=irradiated, SHIP1 inhibitor-treated human PBMC absent responder PBMC; Resp=human PBMC responders absent allogeneic stimulators; Media, media to which only [3H]thymidine was added]. […] (E) SHIP1 inhibition increases circulating granulocyte/neutrophil numbers. Mice were treated daily for 7 days with 60 μM SHIP1 inhibitor (Compound), its vehicle (Vehicle) or were unmanipulated (Normal). Absolute peripheral blood granulocyte numbers were determined by an automated blood cell analyzer. […]

PTEN = target: T1, PTEN (Homo sapiens, UniProt P60484); assay: Malachite Green phosphate release assay, PTEN; type: biochemical
T1 construct: purchased
T1 sequence (P60484 whole entry, species assumed): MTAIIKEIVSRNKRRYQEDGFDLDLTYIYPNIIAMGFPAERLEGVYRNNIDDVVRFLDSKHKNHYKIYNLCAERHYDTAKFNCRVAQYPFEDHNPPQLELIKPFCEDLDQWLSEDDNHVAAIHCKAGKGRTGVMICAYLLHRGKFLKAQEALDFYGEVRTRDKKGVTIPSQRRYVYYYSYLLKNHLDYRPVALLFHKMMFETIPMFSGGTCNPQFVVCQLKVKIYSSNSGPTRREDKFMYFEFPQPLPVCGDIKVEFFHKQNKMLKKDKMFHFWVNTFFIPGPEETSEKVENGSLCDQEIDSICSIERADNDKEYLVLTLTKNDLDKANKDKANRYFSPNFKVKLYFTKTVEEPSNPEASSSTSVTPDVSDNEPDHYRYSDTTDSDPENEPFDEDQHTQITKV
Method: The absorbance measurements shown correspond to liberated PO4 generated by recombinant PTEN (1.44 μg) when incubated with its substrate, PI (3,4,5)P3, as detected by a Malachite Green reporter.
(A) Purified, recombinant SHIP1 has significant activity as determined by the reduction in mean polarization units (mPu) in an FP assay designed for 5′-inositol phosphatases (Echelon Biosciences, Salt Lake City, Utah.). Note that no significant reduction in mP is obtained when the enzyme buffer without SHIP1 is added to the FP assay (Buffer) or when purified SHIP1 is assayed in the absence of its PI(3,4,5)P3 substrate (SHIP1 only).
Assay of SHIP1 enzymatic activity: A fluorescent polarization (FP) assay that detects the 5′-inositol phosphatase activity of SHIP1 was developed based on a previously established protocol [Drees B E, et al., Comb Chem High Throughput Screen (2003) 6(4):321-330] and was obtained from Echelon Biosciences (Salt Lake City, USA). Modifications of the protocol included the application of SHIP1 in the assay and an increase in the concentration of MgCl2 to […] to maximize the activity of SHIP1 in this assay. […]

[2] = mouse, in vivo

SMILES | allogeneic T cell priming by splenocytes from treated mice ([1]; splenocytes from three NSC13480 treated mice as stimulators, MHC mismatched responders) | inhibition of PTEN (PTEN; at 100 μM, Malachite Green reporter, recombinant PTEN 1.44 μg) | ability of splenocytes from treated mice to stimulate allogeneic T cell responses ([1]; H2b mice treated daily i.p. 60 μM for 7 days, H2d responder splenocytes) | inhibition of PTEN activity (PTEN; at 1 mM, Malachite Green assay) | pulmonary myeloid infiltration and lung consolidation [2]
OC(c1cc(-c2ccccc2)nc2c1ccc1ccccc12)C1CCCCN1 (centres unmarked) [NSC13480, (2-phenylbenzo[h]quinolin-4-yl)-piperidin-2-ylmethanol] | profound inhibition | no significant inhibition | – | – | –
CC(C)CCC[C@@H](C)[C@H]1CC[C@H]2[C@@H]3CC[C@H]4C[C@H](N)CC[C@]4(C)[C@H]3CC[C@]12C [NSC23922, (3R,5S,8R,9S,10S,13R,14S,17R)-10,13-dimethyl-17-[(2R)-6-methylheptan-2-yl]-2,3,4,5,6,7,8,9,11,12,14,15,16,17-tetradecahydro-1H-cyclopenta[a]phenanthren-3-amine] | – | – | profoundly impaired | fails to inhibit | absence of the pulmonary myeloid infiltration and lung consolidation
